Results taken from patent US20240300959A1, “BALASUBRAMIDE DERIVATIVE AND USE THEREOF IN PREPARATION OF MEDICINE FOR TREATING ACUTE LUNG INJURY” (Guangdong Pharmaceutical University, priority 2023, published 2024).
Where “and” joins values, the source holds several entries; their conditions need not be identical. Equal values may be shown once.

Experiments:
[1] = test system: mice with acute lung injury caused by intratracheal instillation of lipopolysaccharide; test: Acute lung injury caused by lung exposure to bacterial endotoxin (intratracheal instillation of LPS); assay type: in vivo, ICR mice; conditions: for Content of TNF-α in a lung tissue homogenate (% of Model) / Area percentage of alveolar cells (%) / Lung index (%): 6 h after intratracheal LPS; for Area percentage of alveolar cells (%): H&E lung sections; for Change multiple of COX-2 / Change multiple of IL-1β / Change multiple of IL-6 / Change multiple of TNF-α / Change multiple of iNOS: lung tissue RT-PCR; for Body weight (Day 1) / Body weight (Day 2) / Body weight (Day 3): intratracheal LPS model, in g (unit assumed)
Procedure: Grouping, administration and modeling of animals: Male ICR mice were used as experimental animals, which were randomly divided into a control group, a model group, a positive administration group and administration groups according to the body weight. The control group and the model group were administered with a solvent by intraperitoneal injection (the solvent was prepared from DMSO, Kolliphor HS15 and Saline at a ratio of 1:2:7), the positive administration group was administered with 5 mg/kg dexamethasone by intraperitoneal injection, and the administration groups were administered with (+)3C-20 at a concentration of 10 mg/kg and 50 mg/kg, respectively, by intraperitoneal injection. The dexamethasone and the (+)3C-20 were dissolved in the above solvent and were clear and transparent. The administration was continued for 3 days. 2 h after the last administration, the mice were anesthetized with 2.5% isoflurane, necks were disinfected, cortices of the necks were cut, and tracheae were separated. All other groups were administered with 50 μL of 10 mg/mL LPS (LPS dissolved in Saline) at a dose of 20 mg/kg by instillation while the control group was administered with 50 μL of Saline by intratracheal instillation (it.), and the cortices were sutured. 6 h after the instillation of LPS, the mice were sacrificed, and serum and lung tissues were taken for later use. Body weight and lung index: The mice were weighed and randomly divided on day 1 and continuously weighed for 3 days before administration. 2 h after the last administration, the mice were administered with 50 μL of […] LPS by intratracheal instillation. 6 h later, the mice were dissected, and the lungs were taken and weighed.
On day 3, 6 h after the intratracheal instillation of LPS, a part of the mice were subjected to perfusion with PBS and treated with paraformaldehyde to fix the right lobe of the lungs, another part of the mice were dissected to obtain lungs, and the lungs were frozen with liquid nitrogen for later use. The fixed right lungs were stained with hematoxylin-eosin (H&E) after dehydration, paraffin embedding and sectioning. 40 mg of the frozen lungs were cut, 300 μL of an RIPA lysis buffer was added thereto and homogenized by starting for 45 s and stopping for 15 s at a frequency of 60 Hz in 4 cycles for full lysis, and then centrifuged at 12,000 rpm at 4° C. A supernatant was taken, the protein concentration was calibrated and adjusted with a BCA protein assay kit, and then the level of an inflammatory factor TNF-α in lung tissue homogenates of various groups was detected by a commercial TNF-α ELISA kit. Results are shown in Table 10, FIG. 10-1 and FIG. 10-2.
A small amount of frozen lung tissues were taken, a Trizol lysis reagent was added thereto and fully ground, RNA was extracted according to an operation instruction of an RNA extraction kit, and the expression of inflammation related genes in the lung tissues was detected by an RT-PCR technology. Experimental results are shown in Table 11, FIG. 11-1 and FIG. 11-2.

[2] = test system: inflammation genes in RAW264.7 macrophages stimulated by lipopolysaccharide; test: qPCR expression level of inflammation genes in LPS-stimulated RAW264.7 macrophages; assay type: cell-based, mice; conditions: RAW264.7, LPS
Procedure: RAW264.7 cells were inoculated into a 24-well plate at a density of 5×10^5 per well. When the cell density was 70%-80%, the RAW264.7 cells were pretreated with (+)3C-20 (5 μM, 10 μM, 20 μM). After 3 h, lipopolysaccharide (LPS, 100 ng/mL) was added into all wells for action for 2 h except for a control group. A supernatant was discarded, and the cells at the bottom of the plate were fully lysed with Trizol (Nanjing Vazyme, R401-01). RNA was extracted according to an RNA extraction instruction, and subjected to reverse transcription to obtain cDNA, followed by qPCR according to an amplification method at 95° C. for a total of 5 min (at 95° C. for 10 s, and at 60° C. for 30 s) in 40 cycles, and finally statistical calculation was performed by ΔCt.

[3] = test system: mice with acute lung injury caused by intratracheal instillation of lipopolysaccharide; test: Survival rate of mice with acute lung injury caused by intratracheal instillation of LPS; assay type: in vivo, ICR mice; conditions: 50 mg/kg, LPS 20 mg/kg it, checked up to 72 h
Procedure: Grouping and administration of animals: 45 male ICR mice were randomly divided into 5 groups according to the body weight, including a control group, a model group, a positive dexamethasone (5 mg/kg) group, a (+)3C-20 (10 mg/kg) group and a (+)3C-20 (50 mg/kg) group, with 9 mice in each group. Drug preparation, an administration method and a modeling method were the same as those in Example 7. With the time of intratracheal instillation of LPS as 0 h, the survival state of the mice was checked at the time points of 4 h, 12 h, 16 h, 20 h, 24 h, 36 h, 48 h, 60 h and 72 h, and a survival curve was drawn based on statistics. Results are shown in FIG. 13 (where compared with LPS (20 mg/kg), ***P is less than 0.001).

RAW264.7 cells = test: Cytotoxicity test, CCK-8 cell viability of RAW264.7 cells (24 h); assay type: cell-based, mice; conditions: 10 μM, RAW264.7 cell viability
Procedure: RAW264.7 cells were inoculated into a 96-well plate at a density of 1×10^5 per well. When the cell density was 70%-80%, the RAW264.7 cells were pretreated with 10 mM working solutions prepared from 18 balasubramide derivatives at a final concentration of 10 μM for 24 h, and then the cell viability was determined by a CCK-8 method.

[4] = 10 mg/kg i.p., intratracheal LPS
[5] = 50 mg/kg i.p., intratracheal LPS

SMILES: O=C(CCc1ccc(C(F)(F)F)cc1)O[C@@H]1C(=O)NCCc2c([nH]c3ccccc23)[C@H]1c1ccc(C(F)(F)F)cc1 [(+)-3C-20]
- Content of TNF-α in a lung tissue homogenate (% of Model) ([1]; 10 mg/kg i.p.): 90.587 ± 7.374 ^ % of Model
- Area percentage of alveolar cells (%) ([1]; 10 mg/kg i.p.): 36.611 ± 1.64 %
- Change multiple of COX-2 [1, 4]: 2.05 ± 0.38
- Change multiple of IL-1β [1, 4]: 13.04 ± 1.24
- Change multiple of IL-6 [1, 4]: 17.12 ± 2.28
- Change multiple of TNF-α [1, 4]: 13.32 ± 0.94
- Change multiple of iNOS [1, 4]: 4.56 ± 0.4
- Lung index (%) ([1]; 10 mg/kg intraperitoneal 3 days): 0.656 ± 0.007%
- Body weight (Day 1) ([1]; 10 mg/kg intraperitoneal): 27.67 ± 0.38
- Body weight (Day 2) ([1]; 10 mg/kg intraperitoneal): 27.44 ± 0.43
- Body weight (Day 3) ([1]; 10 mg/kg intraperitoneal): 27.93 ± 0.53
- Content of TNF-α in a lung tissue homogenate (% of Model) ([1]; 50 mg/kg i.p.): 61.408 ± 6.525 % of Model
- Area percentage of alveolar cells (%) ([1]; 50 mg/kg i.p.): 32.805 ± 0.814 %
- Change multiple of COX-2 [1, 5]: 1.14 ± 0.24
- Change multiple of IL-1β [1, 5]: 11.94 ± 1.05
- Change multiple of IL-6 [1, 5]: 15.11 ± 1.58
- Change multiple of TNF-α [1, 5]: 8.56 ± 1.21
- Change multiple of iNOS [1, 5]: 3.75 ± 0.72
- Lung index (%) ([1]; 50 mg/kg intraperitoneal 3 days): 0.591 ± 0.011 %
- Body weight (Day 1) ([1]; 50 mg/kg intraperitoneal): 27.63 ± 0.48
- Body weight (Day 2) ([1]; 50 mg/kg intraperitoneal): 27.04 ± 0.48
- Body weight (Day 3) ([1]; 50 mg/kg intraperitoneal): 27 ± 0.61
- pathological lung injury compared with the model group, in words ([1]; 50 mg/kg, intratracheal LPS): obviously relieving pathological lung injury
- Change multiple of COX-2 ([2]; 5 μM): 4.20 ± 0.16
- Change multiple of IL-1β ([2]; 5 μM): 62.02 ± 7.52
- Change multiple of IL-6 ([2]; 5 μM): 23.17 ± 0.9
- Change multiple of TNF-α ([2]; 5 μM): 11.03 ± 0.87
- Change multiple of COX-2 ([2]; 10 μM): 3.95 ± 0.9
- Change multiple of IL-1β ([2]; 10 μM): 28.51 ± 0.4
- Change multiple of IL-6 ([2]; 10 μM): 16.09 ± 0.24
- Change multiple of TNF-α ([2]; 10 μM): 6.00 ± 1.96
- Change multiple of COX-2 ([2]; 20 μM): 3.49 ± 0.0^8
- Change multiple of IL-1β ([2]; 20 μM): 12.58 ± 1.72
- Change multiple of IL-6 ([2]; 20 μM): 6.53 ± 0.31
- Change multiple of TNF-α ([2]; 20 μM): 4.49 ± 0.81
- effective dose for anti-inflammatory activity (inhibition of expression of inflammation genes) [2]: 5 μM, 10 μM or 20 μM
- survival rate of the model mice, in words [3]: can obviously improve the survival rate
- Percentage of CCK-8 in a model group (%) (RAW264.7 cells): 103.97 ± 3.88% and 95.04 ± 3.22%
